Results: patent US8952169B2 (Genentech, Inc., priority 2012, dated 2015)

Tests used:
hNav1.7 [1] = target: T1, hNav1.7 (Homo sapiens (Human), UniProt Q15858); assay: Tritiated aryl sulfonamide binding to membranes from cells expressing hNav1.7 and the β1 subunit (competitive binding); settings: membranes with hNav1.7 and β1 subunit; [3H]compound displacement, 18 h, room temperature; read-out: NaV1.7 395 Memb Binding (IC50)
How it was run: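 Competitive displacement of 100 μM [3H]-labelled tritiated aryl sulfonamide from hNav1.7/β1 membranes, 18 h at room temperature in 100 mM NaCl, 20 mM Tris HCl pH 7.4. Non-specific binding defined with 1 μM unlabelled compound. Filter-bound radioactivity measured by liquid scintillation counting.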

hNav1.5 = hNav1.5 (Homo sapiens (Human), UniProt Q14524); assay: Patch voltage clamp electrophysiology (PatchXpress), HEK-293 cells, inactivated state block; settings: read-out: EP_PX 293 hNav1.5 (IC50), β1 coexpressed, holding −60 mV;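 note: control was the sodium current recorded in 0.5% DMSO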
hNav1.5, sequence (Q14524 whole entry): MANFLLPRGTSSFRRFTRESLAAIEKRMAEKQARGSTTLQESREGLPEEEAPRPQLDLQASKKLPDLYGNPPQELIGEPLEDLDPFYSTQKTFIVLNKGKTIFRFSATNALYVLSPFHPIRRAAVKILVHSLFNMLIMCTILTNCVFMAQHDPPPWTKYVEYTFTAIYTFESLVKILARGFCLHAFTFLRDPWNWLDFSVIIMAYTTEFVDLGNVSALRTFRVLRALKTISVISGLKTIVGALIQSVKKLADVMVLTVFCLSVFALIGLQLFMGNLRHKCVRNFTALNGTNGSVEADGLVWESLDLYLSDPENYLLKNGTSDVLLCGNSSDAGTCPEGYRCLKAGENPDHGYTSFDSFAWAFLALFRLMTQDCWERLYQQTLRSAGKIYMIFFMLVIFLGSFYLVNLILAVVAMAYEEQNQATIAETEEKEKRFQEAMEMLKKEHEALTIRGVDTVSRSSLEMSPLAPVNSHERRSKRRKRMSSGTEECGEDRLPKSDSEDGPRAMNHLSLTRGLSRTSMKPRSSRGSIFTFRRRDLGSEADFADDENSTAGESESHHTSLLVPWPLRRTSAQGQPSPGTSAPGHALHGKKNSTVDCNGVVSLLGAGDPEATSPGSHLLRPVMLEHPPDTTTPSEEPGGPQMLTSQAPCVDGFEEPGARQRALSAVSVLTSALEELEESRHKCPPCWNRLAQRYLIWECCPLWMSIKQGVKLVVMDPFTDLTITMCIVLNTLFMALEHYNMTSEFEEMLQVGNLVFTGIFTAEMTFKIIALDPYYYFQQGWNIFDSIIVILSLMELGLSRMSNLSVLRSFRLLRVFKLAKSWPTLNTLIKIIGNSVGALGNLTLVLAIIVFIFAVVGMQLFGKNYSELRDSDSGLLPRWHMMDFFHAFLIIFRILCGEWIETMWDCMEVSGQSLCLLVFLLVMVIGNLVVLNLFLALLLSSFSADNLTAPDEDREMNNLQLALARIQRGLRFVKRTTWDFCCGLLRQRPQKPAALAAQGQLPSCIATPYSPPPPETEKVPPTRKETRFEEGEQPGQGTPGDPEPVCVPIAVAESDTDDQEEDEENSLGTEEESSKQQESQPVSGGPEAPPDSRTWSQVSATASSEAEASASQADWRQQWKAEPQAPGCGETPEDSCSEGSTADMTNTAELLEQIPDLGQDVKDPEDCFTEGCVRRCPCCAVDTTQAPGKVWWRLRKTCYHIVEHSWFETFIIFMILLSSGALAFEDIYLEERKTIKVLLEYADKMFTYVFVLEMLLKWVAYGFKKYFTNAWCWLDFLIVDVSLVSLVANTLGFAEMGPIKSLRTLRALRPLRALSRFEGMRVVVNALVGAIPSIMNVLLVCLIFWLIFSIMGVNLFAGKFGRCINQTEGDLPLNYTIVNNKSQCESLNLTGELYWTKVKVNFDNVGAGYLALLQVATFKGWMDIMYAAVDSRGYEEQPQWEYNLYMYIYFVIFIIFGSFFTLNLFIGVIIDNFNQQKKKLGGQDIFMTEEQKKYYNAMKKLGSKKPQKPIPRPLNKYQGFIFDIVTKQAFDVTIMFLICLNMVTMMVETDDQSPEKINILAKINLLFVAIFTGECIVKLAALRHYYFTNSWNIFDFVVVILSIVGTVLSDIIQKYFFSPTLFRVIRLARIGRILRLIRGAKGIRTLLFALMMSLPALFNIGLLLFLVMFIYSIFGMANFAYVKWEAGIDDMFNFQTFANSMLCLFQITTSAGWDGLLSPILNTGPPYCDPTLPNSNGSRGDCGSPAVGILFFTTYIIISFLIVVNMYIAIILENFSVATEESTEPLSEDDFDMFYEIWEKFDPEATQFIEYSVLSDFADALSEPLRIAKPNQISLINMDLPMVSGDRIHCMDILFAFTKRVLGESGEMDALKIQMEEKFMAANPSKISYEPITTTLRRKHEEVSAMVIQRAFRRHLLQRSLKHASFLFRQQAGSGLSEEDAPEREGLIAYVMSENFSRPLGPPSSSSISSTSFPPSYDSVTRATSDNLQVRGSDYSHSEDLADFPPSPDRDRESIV

hNav1.7 [2] = target: T1, hNav1.7; assay: as above; assay type: cell-based; settings: HEK-293 cells, β1 coexpressed; inactivated state, holding −60 mV; read-out: EP_PX 293 hNav1.7 (IC50)

T1 sequence (Q15858 whole entry, looked up): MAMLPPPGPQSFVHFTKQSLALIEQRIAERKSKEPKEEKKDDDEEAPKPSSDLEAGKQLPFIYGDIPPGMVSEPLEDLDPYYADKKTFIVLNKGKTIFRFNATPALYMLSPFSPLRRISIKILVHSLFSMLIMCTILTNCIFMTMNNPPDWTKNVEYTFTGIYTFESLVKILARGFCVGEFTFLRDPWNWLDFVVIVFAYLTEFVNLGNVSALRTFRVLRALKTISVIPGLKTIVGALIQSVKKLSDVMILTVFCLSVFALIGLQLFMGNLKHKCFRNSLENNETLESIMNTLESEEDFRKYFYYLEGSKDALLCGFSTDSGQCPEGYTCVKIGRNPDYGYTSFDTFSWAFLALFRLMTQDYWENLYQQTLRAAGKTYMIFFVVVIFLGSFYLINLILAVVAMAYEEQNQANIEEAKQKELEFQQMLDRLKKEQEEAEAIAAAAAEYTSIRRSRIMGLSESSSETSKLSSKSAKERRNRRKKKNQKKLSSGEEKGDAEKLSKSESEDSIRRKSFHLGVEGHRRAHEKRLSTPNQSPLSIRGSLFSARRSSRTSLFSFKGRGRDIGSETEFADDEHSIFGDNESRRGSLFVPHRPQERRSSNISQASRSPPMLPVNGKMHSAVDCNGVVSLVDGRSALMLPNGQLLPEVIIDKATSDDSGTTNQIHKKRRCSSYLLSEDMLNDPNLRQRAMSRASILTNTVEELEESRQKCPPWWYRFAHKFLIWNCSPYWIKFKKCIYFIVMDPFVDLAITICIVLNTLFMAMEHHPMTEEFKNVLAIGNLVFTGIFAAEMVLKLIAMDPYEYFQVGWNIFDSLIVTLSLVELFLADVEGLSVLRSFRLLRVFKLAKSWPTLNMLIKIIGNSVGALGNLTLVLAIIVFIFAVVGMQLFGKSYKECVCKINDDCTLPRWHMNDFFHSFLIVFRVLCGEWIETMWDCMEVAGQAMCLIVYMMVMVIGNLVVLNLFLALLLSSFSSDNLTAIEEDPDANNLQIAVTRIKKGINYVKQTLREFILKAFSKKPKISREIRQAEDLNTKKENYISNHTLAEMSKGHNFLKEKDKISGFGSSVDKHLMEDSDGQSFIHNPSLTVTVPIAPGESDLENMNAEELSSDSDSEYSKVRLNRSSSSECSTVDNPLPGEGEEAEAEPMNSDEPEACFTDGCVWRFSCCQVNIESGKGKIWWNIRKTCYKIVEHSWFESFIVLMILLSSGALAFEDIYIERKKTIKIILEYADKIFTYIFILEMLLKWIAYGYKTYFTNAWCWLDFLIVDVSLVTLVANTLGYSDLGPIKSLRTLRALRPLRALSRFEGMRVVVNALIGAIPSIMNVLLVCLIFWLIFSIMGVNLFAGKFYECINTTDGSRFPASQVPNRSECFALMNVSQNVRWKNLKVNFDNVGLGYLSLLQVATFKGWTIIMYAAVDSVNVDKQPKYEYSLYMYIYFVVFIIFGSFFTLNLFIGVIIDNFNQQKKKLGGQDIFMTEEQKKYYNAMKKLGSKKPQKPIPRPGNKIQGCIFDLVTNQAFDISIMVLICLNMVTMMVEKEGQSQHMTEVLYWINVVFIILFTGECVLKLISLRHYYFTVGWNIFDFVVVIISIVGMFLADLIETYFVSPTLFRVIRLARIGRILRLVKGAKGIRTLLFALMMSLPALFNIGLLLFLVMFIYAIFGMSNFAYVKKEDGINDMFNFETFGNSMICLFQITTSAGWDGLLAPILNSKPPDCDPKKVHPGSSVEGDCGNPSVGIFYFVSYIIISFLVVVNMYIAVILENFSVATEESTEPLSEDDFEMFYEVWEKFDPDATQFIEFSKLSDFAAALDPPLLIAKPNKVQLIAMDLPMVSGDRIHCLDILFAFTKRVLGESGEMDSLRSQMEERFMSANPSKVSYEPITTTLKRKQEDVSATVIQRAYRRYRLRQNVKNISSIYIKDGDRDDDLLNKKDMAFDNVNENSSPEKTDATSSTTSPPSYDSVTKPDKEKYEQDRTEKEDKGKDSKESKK
T1 sequence (Q07699 whole entry partner, looked up): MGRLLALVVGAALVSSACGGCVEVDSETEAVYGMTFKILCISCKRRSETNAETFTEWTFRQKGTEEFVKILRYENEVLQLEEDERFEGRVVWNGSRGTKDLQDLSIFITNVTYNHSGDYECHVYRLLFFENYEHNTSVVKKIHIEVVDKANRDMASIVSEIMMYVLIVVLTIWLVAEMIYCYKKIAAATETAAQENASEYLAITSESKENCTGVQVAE

IC50 (hNav1.7 [1]) | IC50 (hNav1.7 [2]) | SMILES | IC50 (hNav1.5)
0.535 µM |  | CN(C)S(=O)(=O)NC(=O)c1cc(Cl)c(OC2CC3CC2C2CCCC32)cc1F (stereo not shown) | 7.82 µM
0.009 µM | 0.0036 µM | CS(=O)(=O)NC(=O)c1cc(Cl)c(OCC2CC3C4CCC(C4)C3C2)cc1F (stereo not shown) | 0.743 µM
 |  | O=C(NS(=O)(=O)C1CC1)c1cc(Cl)c(OCC23CC4CC(CC(C4)C2)C3)cc1F | 0.427 µM
0.01 µM |  | O=C(NS(=O)(=O)N1CC[C@H](O)C1)c1cc(C2CC2)c(OCC23CC4CC(CC(C4)C2)C3)cc1F | 0.11 µM
0.001 µM |  | O=C(NS(=O)(=O)N1CC(F)C1)c1cc(C2CC2)c(OCC23CC4CC(CC(C4)C2)C3)cc1F | 0.422 µM
0.01 µM |  | O=C(NS(=O)(=O)N1CC(F)(F)C1)c1cc(C2CC2)c(OCC23CC4CC(CC(C4)C2)C3)cc1F | 0.326 µM
 |  | CS(=O)(=O)NC(=O)c1cc(C2CC2)c(OCC2CCC(F)(F)CC2)cc1F | 5.23 µM
0.023 µM | 0.0092 µM | O=C(NS(=O)(=O)NCCCO)c1cc(C2CC2)c(OCC23CC4CC(CC(C4)C2)C3)cc1F | 0.022 µM
0.003 µM | 0.0249 µM | COC1CN(S(=O)(=O)NC(=O)c2cc(C3CC3)c(OCC34CC5CC(CC(C5)C3)C4)cc2F)C1 | 0.144 µM
 |  | COCCS(=O)(=O)NC(=O)c1cc(C2CC2)c(OCC2CCCCC2)cc1F | 0.14 µM
0.001 µM | 0.009 µM | O=C(NS(=O)(=O)N1CCC1)c1cc(C2CC2)c(OCC2C3CC4CC(C3)CC2C4)cc1F (stereo not shown) | 0.13 µM
0.014 µM | 0.02 µM | CS(=O)(=O)NC(=O)c1cc(C2CC2)c(OCC23CC4(F)CC(F)(CC(F)(C4)C2)C3)cc1F | 3.5 µM
0.006 µM | 0.008 µM | O=C(NS(=O)(=O)C1CC1)c1cc(C2CC2)c(OCC2CCC(F)(F)CC2)cc1F | 0.63 µM
0.005 µM | 0.02 µM | O=C(NS(=O)(=O)C1CC1)c1cc(C2CC2)c(OCC23CC4(F)CC(F)(CC(F)(C4)C2)C3)cc1F | 0.43 µM
0.004 µM | 0.002 µM | O=C(NS(=O)(=O)N1CCC1)c1cc(C2CC2)c(OCC2(C(F)(F)F)CCCC2)cc1F | 0.09 µM
0.003 µM | 0.008 µM | O=C(NS(=O)(=O)C1CC1)c1cc(C2CC2)c(OCC23CC4CC(C2)C(F)(F)C(C4)C3)cc1F | 0.13 µM
0.006 µM | 0.002 µM | O=C(NS(=O)(=O)N1CCC1)c1cc(C2CC2)c(OCC23CCCCC2C3)cc1F (stereo not shown) | 0.16 µM
0.29 µM | 0.063 µM | O=C(NS(=O)(=O)N1CCC1)c1cnc(OCC23CC4CC(CC(C4)C2)C3)c(C2CC2)c1 | 7.5 µM
0.72 µM | 0.37 µM | COCCS(=O)(=O)NC(=O)c1cnc(OCC23CC4CC(CC(C4)C2)C3)c(C2CC2)c1 | 15.3 µM
0.072 µM | 0.0179 µM | CS(=O)(=O)NC(=O)c1cnc(OCC23CC4CC(CC(C4)C2)C3)c(C2CC2)c1 | 2.58 µM

IC50 (hNav1.7 [1]) | IC50 (hNav1.7 [2]) | SMILES | IC50 (hNav1.5)
0.007 µM | 0.0107 µM | O=C(NS(=O)(=O)N1CC(O)C1)c1cc(C2CC2)c(OCC23CC4CC(CC(C4)C2)C3)cc1F | 0.0606 µM
0.012 µM |  | CC1(C)[C@H]2CC[C@H](COc3cc(F)c(C(=O)NS(C)(=O)=O)cc3Cl)[C@@H]1C2 | 1.07 µM
0.012 µM | 0.062 µM | CC1(C)CCCC(Oc2cc(F)c(C(=O)NS(C)(=O)=O)cc2C2CC2)C1 (stereo not shown) [Example 358, 5-cyclopropyl-4-((3,3-dimethylcyclohexyl)oxy)-2-fluoro-N-(methylsulfonyl)benzamide] | 
0.007 µM | 0.011 µM | CC1CCCCC1COc1cc(F)c(C(=O)NS(=O)(=O)N2CCC2)cc1C1CC1 (stereo not shown) [Example 372] | 
0.02 µM | 0.03 µM | O=C(NS(=O)(=O)N1CCC1)c1cc(C2CC2)c(OCC2CC=C(Cl)CC2)cc1F (stereo not shown) [Example 376] | 
0.008 µM | 0.084 µM | O=C(NS(=O)(=O)N1CCC1)c1cc(C2CC2)c(OCC2CCC(Cl)(Cl)CC2)cc1F [Example 377] | 
0.004 µM | 0.08 µM | CS(=O)(=O)NC(=O)c1cc(C2CC2(F)F)c(OCC23CC4CC(CC(C4)C2)C3)cc1F (stereo not shown) [Example 380] | 
0.005 µM | 0.003 µM | O=C(NS(=O)(=O)C1CC1)c1cc(C2CC2)c(OCC2CCC3CC3C2)cc1F (stereo not shown) [Example 392] | 
0.032 µM | 0.2 µM | CC1CCCC(C)C1COc1cc(F)c(C(=O)NS(=O)(=O)C2CC2)cc1Cl (stereo not shown) [Example 397] | 
0.02 µM | 0.097 µM | CCS(=O)(=O)NC(=O)c1cc(Cl)c(OCC2CCC3(CC2)CC3)cc1F [Example 400] | 
0.022 µM | 0.3 µM | CS(=O)(=O)NC(=O)c1cc(C2CC2)c(OCC2CCCC(F)(F)C2)cc1F (stereo not shown) [Example 402] | 
0.09 µM | 0.91 µM | CNS(=O)(=O)NC(=O)c1cc(C2CC2)c(OCC2CCCC(F)(F)C2)cc1F (stereo not shown) [Example 403] | 
0.023 µM | 0.057 µM | O=C(NS(=O)(=O)N1CCC1)c1cc(C2CC2)c(OCC2CCCC(F)(F)C2)cc1F (stereo not shown) [Example 404] | 
0.002 µM | 0.051 µM | CC1(COc2cc(F)c(C(=O)NS(=O)(=O)C3CC3)cc2C2CC2)CCC(C(F)(F)F)CC1 (stereo not shown) [Example 426, 5-cyclopropyl-N-cyclopropylsulfonyl-2-fluoro-4-[[1-methyl-4-(trifluoromethyl)cyclohexyl]methoxy]benzamide] | 
0.003 µM | 0.13 µM | CC1(COc2cc(F)c(C(=O)NS(=O)(=O)N3CCC3)cc2C2CC2)CCC(C(F)(F)F)CC1 (stereo not shown) [Example 427, N-(azetidin-1-ylsulfonyl)-5-cyclopropyl-2-fluoro-4-[[1-methyl-4-(trifluoromethyl)cyclohexyl]methoxy]benzamide] | 
0.004 µM | 0.012 µM | O=C(NS(=O)(=O)C1CC1)c1cc(C2CC2)c(OCC2CCC(C(F)(F)F)CC2)cc1F (stereo not shown) [Example 428, 5-cyclopropyl-N-cyclopropylsulfonyl-2-fluoro-4-[[4-(trifluoromethyl)cyclohexyl]methoxy]benzamide] | 
0.008 µM | 0.1 µM | O=C(NS(=O)(=O)N1CCC1)c1cc(C2CC2)c(OCC2CCC(C(F)(F)F)CC2)cc1F (stereo not shown) [Example 429, N-(azetidin-1-ylsulfonyl)-5-cyclopropyl-2-fluoro-4-[[4-(trifluoromethyl)cyclohexyl]methoxy]benzamide] | 
0.003 µM | 0.01 µM | O=C(NS(=O)(=O)C1CC1)c1cc(C2CC2)c(OCC23CCCCC2C3(F)F)cc1F (stereo not shown) [Example 430, 5-cyclopropyl-N-cyclopropylsulfonyl-4-[(7,7-difluoronorcaran-1-yl)methoxy]-2-fluoro-benzamide] | 
0.013 µM | 0.01 µM | O=C(NS(=O)(=O)N1CCC1)c1cc(C2CC2)c(OCC23CCCCC2C3(F)F)cc1F (stereo not shown) [Example 431, N-(azetidin-1-ylsulfonyl)-5-cyclopropyl-4-[(7,7-difluoronorcaran-1-yl)methoxy]-2-fluoro-benzamide] | 
0.022 µM | 0.032 µM | O=C(NS(=O)(=O)N1CCC1)c1cc(C2CC2)c(OCC2CCC3CC3C2)cc1F (stereo not shown) [Example 432, N-(azetidin-1-ylsulfonyl)-5-cyclopropyl-2-fluoro-4-(norcaran-3-ylmethoxy)benzamide] | 

SMILES | IC50 (hNav1.7 [1]) | IC50 (hNav1.7 [2]) | IC50 (hNav1.5)
O=C(NS(=O)(=O)N1CCC1)c1cc(C2CC2)c(O[C@H]2C3CC4CC2C[C@](Cl)(C4)C3)cc1F | 0.009 µM | 0.03 µM | 21.6 µM
